Reference: US10487068B2, “Pyridazine derivatives as RORc modulators” (Genentech, Inc., priority 2015, dated 2019)
pIC50: −log10 of the molar value.

Molecular target: T1, RORc ligand binding domain (Homo sapiens, UniProt P51449)
T1 sequence (P51449 269-508 limits assumed): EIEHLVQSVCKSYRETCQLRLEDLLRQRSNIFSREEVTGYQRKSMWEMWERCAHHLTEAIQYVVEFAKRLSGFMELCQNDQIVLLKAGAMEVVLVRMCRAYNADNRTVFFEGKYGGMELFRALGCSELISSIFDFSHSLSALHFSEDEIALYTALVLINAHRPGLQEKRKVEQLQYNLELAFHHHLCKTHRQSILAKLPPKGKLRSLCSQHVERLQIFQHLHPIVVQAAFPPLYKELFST
Test: In Vitro RORc Ligand Binding Assay
Conditions: RORc IC50, radioligand 25-[3H]hydroxycholesterol 6 nM; 0.6 ug/mL RORc receptor; 3 h at 25° C.

SMILES	pIC50
CC1(C)[C@H]2CC[C@]1(c1nc(C(F)(F)F)ncc1Br)c1nnc(-c3c(F)cccc3F)cc12 [Example 168]	7.70
COC(=O)c1cnc(C)c([C@@]23CC[C@@H](c4cc(-c5c(F)cccc5F)nnc42)C3(C)C)n1 [Example 169, methyl 6-((5R,8S)-3-(2,6-difluorophenyl)-9,9-dimethyl-5,6,7,8-tetrahydro-5,8-methanocinnolin-8-yl)-5-methylpyrazine-2-carboxylate]	8.00
Cc1ncc(C(=O)NCCO)nc1[C@@]12CC[C@@H](c3cc(-c4c(F)cccc4F)nnc31)C2(C)C [Example 170, 6-((5R,8S)-3-(2,6-difluorophenyl)-9,9-dimethyl-5,6,7,8-tetrahydro-5,8-methanocinnolin-8-yl)-N-(2-hydroxyethyl)-5-methylpyrazine-2-carboxamide]	6.92
Cc1nnc(-c2ccnc([C@@]34CC[C@@H](c5cc(-c6c(F)cccc6F)nnc53)C4(C)C)n2)[nH]1 [Example 171, (5R,8R)-3-(2,6-difluorophenyl)-9,9-dimethyl-8-(4-(5-methyl-4H-1,2,4-triazol-3-yl)pyrimidin-2-yl)-5,6,7,8-tetrahydro-5,8-methanocinnoline]	7.44
CC1(C)[C@H]2CC[C@]1(c1ccc(C#N)nc1)c1nnc(-c3c(F)cccc3Cl)cc12 [Example 172, 5-((5R,8S)-3-(2-chloro-6-fluorophenyl)-9,9-dimethyl-5,6,7,8-tetrahydro-5,8-methanocinnolin-8-yl)picolinonitrile]	6.80
CC1(C)[C@H]2CC[C@]1(c1cccc(C#N)n1)c1nnc(-c3c(F)cccc3Cl)cc12 [Example 173, 6-((5R,8S)-3-(2-chloro-6-fluorophenyl)-9,9-dimethyl-5,6,7,8-tetrahydro-5,8-methanocinnolin-8-yl)picolinonitrile]	8.35
CC1(C)[C@H]2CC[C@]1(c1cncc(-c3c[nH]c(=O)[nH]3)n1)c1nnc(-c3c(F)cccc3F)cc12 [Example 174, 4-(6-((5R,8S)-3-(2,6-difluorophenyl)-9,9-dimethyl-5,6,7,8-tetrahydro-5,8-methanocinnolin-8-yl)pyrazin-2-yl)-1H-imidazol-2(3H)-one]	8.07
Cc1ncc(-c2ccnc([C@@]34CC[C@@H](c5cc(-c6c(F)cccc6F)nnc53)C4(C)C)c2)o1 [Example 175]	7.87
COC(=O)c1nc(C)cc([C@@]23CC[C@@H](c4cc(-c5c(F)cccc5F)nnc42)C3(C)C)n1 [Example 176]	7.89
CC1(C)[C@H]2CC[C@]1(c1cc(N)ncc1Cl)c1nnc(-c3c(F)cccc3F)cc12 [Example 177, 5-chloro-4-((5R,8S)-3-(2,6-difluorophenyl)-9,9-dimethyl-5,6,7,8-tetrahydro-5,8-methanocinnolin-8-yl)pyridin-2-amine]	7.61
Cc1nnc(-c2nccc([C@@]34CC[C@@H](c5cc(-c6c(F)cccc6F)nnc53)C4(C)C)n2)[nH]1 [Example 178]	7.56
CC1(C)[C@H]2CC[C@]1(c1cccc(-c3n[nH]c(=O)[nH]3)n1)c1nnc(-c3c(F)cccc3F)cc12 [Example 179, 3-(6-((5R,8S)-3-(2,6-difluorophenyl)-9,9-dimethyl-5,6,7,8-tetrahydro-5,8-methanocinnolin-8-yl)pyridin-2-yl)-1H-1,2,4-triazol-5(4H)-one]	7.82
CC1(C)[C@H]2CC[C@]1(c1ccnc(-c3nnc(CO)[nH]3)n1)c1nnc(-c3c(F)cccc3F)cc12 [Example 180]	7.55
CC1(C)[C@H]2CC[C@]1(c1ccnc(-n3ccnc3)n1)c1nnc(-c3c(F)cccc3F)cc12 [Example 181]	8.43
CC1(C)[C@H]2CC[C@]1(c1ccnc(-n3cncn3)n1)c1nnc(-c3c(F)cccc3F)cc12 [Example 182]	8.38
CNS(=O)(=O)c1nccc([C@@]23CC[C@@H](c4cc(-c5c(F)cccc5F)nnc42)C3(C)C)n1 [Example 183]	7.81
CC1(C)[C@H]2CC[C@]1(c1cncc(-c3cnco3)n1)c1nnc(-c3c(F)cccc3F)cc12 [Example 184, 5-(6-((5R,8S)-3-(2,6-difluorophenyl)-9,9-dimethyl-5,6,7,8-tetrahydro-5,8-methanocinnolin-8-yl)pyrazin-2-yl)oxazole]	8.48
CC1(C)[C@H]2CC[C@]1(c1cncc(=O)[nH]1)c1nnc(-c3c(F)cccc3F)cc12 [Example 185, 6-((5R,8S)-3-(2,6-difluorophenyl)-9,9-dimethyl-5,6,7,8-tetrahydro-5,8-methanocinnolin-8-yl)pyrazin-2(1H)-one]	7.52
COC(=O)c1ncc(Br)c([C@@]23CC[C@@H](c4cc(-c5c(F)cccc5F)nnc42)C3(C)C)n1 [Example 187]	7.58
CC1(C)[C@H]2CC[C@]1(c1ccnc(-n3ccnn3)n1)c1nnc(-c3c(F)cccc3F)cc12 [Example 188]	8.12
CC1(C)[C@H]2CC[C@]1(c1ccnc(-n3nccn3)n1)c1nnc(-c3c(F)cccc3F)cc12 [Example 189]	7.83
CC1(C)[C@H]2CC[C@]1(c1ccnc(S(=O)(=O)NCCO)n1)c1nnc(-c3c(F)cccc3F)cc12 [Example 190]	7.87
CC1(C)[C@H]2CC[C@]1(c1cccc(S(=O)(=O)NCC3(O)COC3)n1)c1nnc(-c3c(F)cccc3F)cc12 [Example 191, 6-((5R,8S)-3-(2,6-difluorophenyl)-9,9-dimethyl-5,6,7,8-tetrahydro-5,8-methanocinnolin-8-yl)-N-((3-hydroxyoxetan-3-yl)methyl)pyridine-2-sulfonamide]	7.61
CC1(C)[C@H]2CC[C@]1(c1ccnc(C#N)c1C#N)c1nnc(-c3c(F)cccc3F)cc12 [Example 192, 4-((5R,8S)-3-(2,6-difluorophenyl)-9,9-dimethyl-5,6,7,8-tetrahydro-5,8-methanocinnolin-8-yl)pyridine-2,3-dicarbonitrile]	6.91
CC1(C)[C@H]2CC[C@]1(c1nc(C(=O)NCCO)ncc1Br)c1nnc(-c3c(F)cccc3F)cc12 [Example 193]	7.24
CC1(C)[C@H]2CC[C@]1(c1cncc(C(=O)NCCO)c1)c1nnc(-c3c(F)cccc3F)cc12 [Example 194, 5-((5R,8S)-3-(2,6-difluorophenyl)-9,9-dimethyl-5,6,7,8-tetrahydro-5,8-methanocinnolin-8-yl)-N-(2-hydroxyethyl)nicotinamide]	7.62
CC1(C)[C@H]2CC[C@]1(c1cncc(-n3cncn3)n1)c1nnc(-c3c(F)cccc3F)cc12 [Example 195]	8.20
CC(C)(O)c1coc(-c2cncc([C@@]34CC[C@@H](c5cc(-c6c(F)cccc6F)nnc53)C4(C)C)n2)n1 [Example 196, 2-(2-(6-((5R,8S)-3-(2,6-difluorophenyl)-9,9-diimethyl-5,6,7,8-tetrahydro-5,8-methanocinnolin-8-yl)pyrazin-2-yl)oxazol-4-yl)propan-2-ol]	8.19
CC1(C)[C@H]2CC[C@]1(c1cncc(C(=O)N[C@H]3C[C@](C)(O)C3)n1)c1nnc(-c3c(F)cccc3F)cc12 [Example 197, 6-((5R,8S)-3-(2,6-difluorophenyl)-9,9-dimethyl-5,6,7,8-tetrahydro-5,8-methanocinnolin-8-yl)-N-((1r,3S)-3-hydroxy-3-methylcyclobutyl)pyrazine-2-carboxamide]	7.85
